Patent US20260159536A1, “AKR1C3-ACTIVATED DNA ALKYLATING AGENT, AND MEDICAL APPLICATION THEREOF” (ASCENTAWITS PHARMACEUTICALS, LTD., priority 2021, published 2026)

What was measured:
[1] = Plasma stability test, mouse; type: in vitro ADME; settings: 5 μM, 37° C.
Experimental: The pH of the plasma was checked and recorded. Note: a.
The final concentration of solvent was 0.5%.
The assay was performed in duplicate. […] The tubes were mixed by vortex for 5 minutes.

[2] = test system: HuPrime model LI6643 human liver cancer; experiment: In vivo pharmacodynamics, liver cancer LI6643 PDX model (Compound A, Sorafenib; section 4.8); set-up: species or system BALB/c nude mice
Experimental: Experiment Instruction: BALB/c nude mice were subcutaneously inoculated with HuPrime® model LI6643 tumor blocks to establish a subcutaneous transplantation tumor model of human liver cancer. […] The efficacy was evaluated according to the relative tumor inhibition rate TGI (%), and the safety was evaluated according to the change in body weight and the death of the animals.

[3] = test system: human liver cancer LI6652; experiment: In vivo pharmacodynamics, liver cancer LI6652 subcutaneous xenograft PDX model; set-up: species or system BALB/c nude mice; settings: for Relative tumor volume (x ± S) / T/C (%) / TGI (%) / Tumor volume (x ± S): 2 weeks off, 2 cycles
Experimental: The pharmacodynamic analysis of each group in liver cancer LI6652 model was performed on Day 31 after administration, and the results were shown in Table 12.

[4] = MTD assay and toxicokinetics of Compound A, single 30 min intravenous infusion
[5] = 1.25 mg/kg, QDx5, 2 days off, 2 weeks off, QDx5, i.p., Day 35
[6] = 2.5 mg/kg, QDx5, 2 days off, 2 weeks off, QDx5, i.p., Day 35
[7] = 5 mg/kg, QDx5, 2 days off, 2 weeks off, QDx5, i.p., Day 35
[8] = 10 mg/kg, QWx2, 1 week off, QWx2, i.v., Day 35
[9] = 1.25 mg/kg i.p. QDx5, 2 days off, Day 28
[10] = 2.5 mg/kg i.p. QDx5, 2 days off, Day 28
[11] = 5 mg/kg i.p. QDx5, 2 days off, Day 28

For `O=[N+]([O-])c1ccc(C(OP(=O)(N2CC2)N2CC2)C(F)(F)F)cc1Oc1ccc(-c2ccc(F)cc2)c(F)c1` (racemic) [Compound A], the “Percentage remaining after 2 hours in plasma” value [1] was 38.19%, the Tumor volume ([2]; 1.25 mg/kg i.p., Day 0) was 126.02 mm^3 and the Tumor volume ([2]; 1.25 mg/kg i.p., Day 4) was 181.97 mm^3. The Tumor volume ([2]; 1.25 mg/kg i.p., Day 7) was 270.85 mm^3, the Tumor volume ([2]; 1.25 mg/kg i.p., Day 11) was 264.04 mm^3 and the Tumor volume ([2]; 1.25 mg/kg i.p., Day 14) was 197.40 mm^3. For the same compound, the Tumor volume ([2]; 1.25 mg/kg i.p., Day 18) was 177.65 mm^3, the Tumor volume ([2]; 1.25 mg/kg i.p., Day 21) was 102.13 mm^3 and the Tumor volume ([2]; 1.25 mg/kg i.p., Day 25) was 90.41 mm^3. The Tumor volume ([2]; 1.25 mg/kg i.p., Day 28) was 73.75 mm^3, the Tumor volume ([2]; 1.25 mg/kg i.p., Day 32) was 49.39 mm^3 and the Tumor volume ([2]; 1.25 mg/kg i.p., Day 35) was 35.61 mm^3. The Tumor volume ([2]; 1.25 mg/kg i.p., Day 39) was 31.79 mm^3, the Tumor volume ([2]; 1.25 mg/kg i.p., Day 42) was 25.59 mm^3 and the Tumor volume ([2]; 1.25 mg/kg i.p., Day 46) was 19.34 mm^3. For the same compound, the Tumor volume ([2]; 1.25 mg/kg i.p., Day 49) was 12.51 mm^3, the Tumor volume ([2]; 1.25 mg/kg i.p., Day 53) was 9.04 mm^3 and the “Relative tumor volume (x ± S)” value [2, 5] was 0.27 ± 0.14. The “T/C (%)” value [2, 5] was 1.89%, the “TGI (%)” value [2, 5] was 98.11% and the “Tumor volume (x ± S)” value [2, 5] was 35.61 ± 18.63. It also gave a Tumor volume ([2]; 2.5 mg/kg i.p., Day 0) of 125.92 mm^3, a Tumor volume ([2]; 2.5 mg/kg i.p., Day 4) of 199.12 mm^3 and a Tumor volume ([2]; 2.5 mg/kg i.p., Day 7) of 278.32 mm^3. For the same compound, the Tumor volume ([2]; 2.5 mg/kg i.p., Day 11) was 191.74 mm^3, the Tumor volume ([2]; 2.5 mg/kg i.p., Day 14) was 167.14 mm^3 and the Tumor volume ([2]; 2.5 mg/kg i.p., Day 18) was 154.33 mm^3. It also gave a Tumor volume ([2]; 2.5 mg/kg i.p., Day 21) of 100.94 mm^3, a Tumor volume ([2]; 2.5 mg/kg i.p., Day 25) of 103.28 mm^3 and a Tumor volume ([2]; 2.5 mg/kg i.p., Day 28) of 93.12 mm^3. For the same compound, the Tumor volume ([2]; 2.5 mg/kg i.p., Day 32) was 74.85 mm^3, the Tumor volume ([2]; 2.5 mg/kg i.p., Day 35) was 56.62 mm^3 and the Tumor volume ([2]; 2.5 mg/kg i.p., Day 39) was 39.85 mm^3. The Tumor volume ([2]; 2.5 mg/kg i.p., Day 42) was 27.34 mm^3, the Tumor volume ([2]; 2.5 mg/kg i.p., Day 46) was 14.83 mm^3 and the Tumor volume ([2]; 2.5 mg/kg i.p., Day 49) was 12.00 mm^3. The Tumor volume ([2]; 2.5 mg/kg i.p., Day 53) was 12.86 mm^3, the “Relative tumor volume (x ± S)” value [2, 6] was 0.45 ± 0.07 and the “T/C (%)” value [2, 6] was 3.19%. For the same compound, the “TGI (%)” value [2, 6] was 96.81%, the “Tumor volume (x ± S)” value [2, 6] was 56.62 ± 9.62 and the Tumor volume ([2]; 5 mg/kg i.p., Day 0) was 126.93 mm^3. It also gave a Tumor volume ([2]; 5 mg/kg i.p., Day 4) of 178.97 mm^3, a Tumor volume ([2]; 5 mg/kg i.p., Day 7) of 214.95 mm^3 and a Tumor volume ([2]; 5 mg/kg i.p., Day 11) of 132.13 mm^3. It also gave a Tumor volume ([2]; 5 mg/kg i.p., Day 14) of 63.74 mm^3, a Tumor volume ([2]; 5 mg/kg i.p., Day 18) of 60.36 mm^3 and a Tumor volume ([2]; 5 mg/kg i.p., Day 21) of 40.93 mm^3. The Tumor volume ([2]; 5 mg/kg i.p., Day 25) was 24.91 mm^3, the Tumor volume ([2]; 5 mg/kg i.p., Day 28) was 21.48 mm^3 and the Tumor volume ([2]; 5 mg/kg i.p., Day 32) was 8.71 mm^3. It also gave a Tumor volume ([2]; 5 mg/kg i.p., Day 35) of 7.12 mm^3, a Tumor volume ([2]; 5 mg/kg i.p., Day 39) of 6.77 mm^3 and a Tumor volume ([2]; 5 mg/kg i.p., Day 42) of 5.57 mm^3. For the same compound, the Tumor volume ([2]; 5 mg/kg i.p., Day 46) was 4.27 mm^3, the Tumor volume ([2]; 5 mg/kg i.p., Day 49) was 4.12 mm^3 and the Tumor volume ([2]; 5 mg/kg i.p., Day 53) was 3.81 mm^3. For the same compound, the “Relative tumor volume (x ± S)” value [2, 7] was 0.05 ± 0.05, the “T/C (%)” value [2, 7] was 0.34% and the “TGI (%)” value [2, 7] was 99.66%. The “Tumor volume (x ± S)” value [2, 7] was 7.12 ± 7.12, the Tumor volume ([2]; 10 mg/kg i.v., Day 0) was 126.11 mm^3 and the Tumor volume ([2]; 10 mg/kg i.v., Day 4) was 160.85 mm^3. For the same compound, the Tumor volume ([2]; 10 mg/kg i.v., Day 7) was 216.99 mm^3, the Tumor volume ([2]; 10 mg/kg i.v., Day 11) was 94.21 mm^3 and the Tumor volume ([2]; 10 mg/kg i.v., Day 14) was 72.94 mm^3. It also gave a Tumor volume ([2]; 10 mg/kg i.v., Day 18) of 59.48 mm^3, a Tumor volume ([2]; 10 mg/kg i.v., Day 21) of 25.80 mm^3 and a Tumor volume ([2]; 10 mg/kg i.v., Day 25) of 21.28 mm^3. It also gave a Tumor volume ([2]; 10 mg/kg i.v., Day 28) of 10.93 mm^3, a Tumor volume ([2]; 10 mg/kg i.v., Day 32) of 7.11 mm^3 and a Tumor volume ([2]; 10 mg/kg i.v., Day 35) of 0.00 mm^3. It also gave a Tumor volume ([2]; 10 mg/kg i.v., Day 39) of 0.00 mm^3, a Tumor volume ([2]; 10 mg/kg i.v., Day 42) of 0.00 mm^3 and a Tumor volume ([2]; 10 mg/kg i.v., Day 46) of 0.00 mm^3. For the same compound, the Tumor volume ([2]; 10 mg/kg i.v., Day 49) was 0.00 mm^3, the Tumor volume ([2]; 10 mg/kg i.v., Day 53) was 0.00 mm^3 and the “Relative tumor volume (x ± S)” value [2, 8] was 0 ± 0. The “T/C (%)” value [2, 8] was 0.00%, the “TGI (%)” value [2, 8] was 100.00% and the “Tumor volume (x ± S)” value [2, 8] was 0 ± 0. For the same compound, the “toxic side effects (body weight change)” value ([2]; 1.25, 2.5, 5, 10 mg/kg) was “without toxic side effects”, the “Relative tumor volume (x ± S)” value [3, 9] was 0.18 ± 0.07 and the “T/C (%)” value [3, 9] was 1.23%. For the same compound, the “TGI (%)” value [3, 9] was 98.77%, the “Tumor volume (x ± S)” value [3, 9] was 24.72 ± 9.57 and the Tumor volume ([3]; 1.25 mg/kg i.p., Day 0) was 126.30 mm^3. It also gave a Tumor volume ([3]; 1.25 mg/kg i.p., Day 3) of 184.11 mm^3, a Tumor volume ([3]; 1.25 mg/kg i.p., Day 7) of 194.19 mm^3 and a Tumor volume ([3]; 1.25 mg/kg i.p., Day 10) of 135.63 mm^3. It also gave a Tumor volume ([3]; 1.25 mg/kg i.p., Day 14) of 51.98 mm^3, a Tumor volume ([3]; 1.25 mg/kg i.p., Day 17) of 28.94 mm^3 and a Tumor volume ([3]; 1.25 mg/kg i.p., Day 21) of 29.42 mm^3. It also gave a Tumor volume ([3]; 1.25 mg/kg i.p., Day 24) of 28.38 mm^3, a Tumor volume ([3]; 1.25 mg/kg i.p., Day 28) of 24.72 mm^3 and a Tumor volume ([3]; 1.25 mg/kg i.p., Day 31) of 18.12 mm^3. For the same compound, the “Relative tumor volume (x ± S)” value [3, 10] was 0.17 ± 0.10, the “T/C (%)” value [3, 10] was 1.16% and the “TGI (%)” value [3, 10] was 98.84%. The “Tumor volume (x ± S)” value [3, 10] was 18.28 ± 8.14, the Tumor volume ([3]; 2.5 mg/kg i.p., Day 0) was 126.29 mm^3 and the Tumor volume ([3]; 2.5 mg/kg i.p., Day 3) was 179.46 mm^3. For the same compound, the Tumor volume ([3]; 2.5 mg/kg i.p., Day 7) was 189.33 mm^3, the Tumor volume ([3]; 2.5 mg/kg i.p., Day 10) was 145.19 mm^3 and the Tumor volume ([3]; 2.5 mg/kg i.p., Day 14) was 43.64 mm^3. For the same compound, the Tumor volume ([3]; 2.5 mg/kg i.p., Day 17) was 29.90 mm^3, the Tumor volume ([3]; 2.5 mg/kg i.p., Day 21) was 21.49 mm^3 and the Tumor volume ([3]; 2.5 mg/kg i.p., Day 24) was 17.91 mm^3. The Tumor volume ([3]; 2.5 mg/kg i.p., Day 28) was 18.28 mm^3, the Tumor volume ([3]; 2.5 mg/kg i.p., Day 31) was 5.56 mm^3 and the “Relative tumor volume (x ± S)” value [3, 11] was 0.02 ± 0.02. The “T/C (%)” value [3, 11] was 0.14%, the “Tumor volume (x ± S)” value [3, 11] was 3.38 ± 3.38 and the Tumor volume ([3]; 5 mg/kg i.p., Day 0) was 124.83 mm^3. For the same compound, the Tumor volume ([3]; 5 mg/kg i.p., Day 3) was 174.91 mm^3, the Tumor volume ([3]; 5 mg/kg i.p., Day 7) was 190.90 mm^3 and the Tumor volume ([3]; 5 mg/kg i.p., Day 10) was 130.55 mm^3. For the same compound, the Tumor volume ([3]; 5 mg/kg i.p., Day 14) was 34.29 mm^3, the Tumor volume ([3]; 5 mg/kg i.p., Day 17) was 19.84 mm^3 and the Tumor volume ([3]; 5 mg/kg i.p., Day 21) was 13.80 mm^3. It also gave a Tumor volume ([3]; 5 mg/kg i.p., Day 24) of 12.20 mm^3, a Tumor volume ([3]; 5 mg/kg i.p., Day 28) of 3.38 mm^3 and a Tumor volume ([3]; 5 mg/kg i.p., Day 31) of 2.62 mm^3. The “relative tumor inhibition TGI (%)” value ([3]; 1.25, 2.5, 5 mg/kg i.p.) was “exceeding 98%”, the “effect on body weight” value ([3]; 1.25, 2.5, 5 mg/kg, at least 28 days) was “no significant effect on the body weight” and the exposure ([4]; 1, 3, 6 mg/kg) was “dose proportional”. For the same compound, the survival ([4]; 1, 3, 6 mg/kg, until planned dissection) was “all animals survived”, the MTD at 14 days ([4]; both, monkey (machins), in vivo, iv) was over 6 mg/kg and the clearance ([4]; both, monkey (machins), plasma, iv) was 22.3 to 45.3 mL/min/kg. For the same compound, the clinical observation ([4]; females, 3 mg/kg and 6 mg/kg) was “slight erythema at the site of the administration” and the clinical observation ([4]; males and females, 6 mg/kg) was “Soft stools”.
